Results reported in ChEMBL document CHEMBL1201862, “PubChem BioAssay data set” (2004).
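48-hour exposure; five concentrations; linearly interpolated endpoints. GI50 marks 50% less growth.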 Activity calls are given as the source filed them. Rule as the data show it: active = GI50 up to about 1.1 µM and inactive = higher.

What was measured:
Test in all cases: NCI anticancer screen, dose series, 48 h
UACC-257 = system: UACC-257
MDA-MB-435 = system: MDA-MB-435
RPMI-8226 = system: RPMI-8226
ACHN = system: ACHN
SR = system: SR
HCT-15 = system: HCT-15
UO-31 = system: UO-31
SN12C = system: SN12C
EKVX = system: EKVX
SF-295 = system: SF-295
HOP-62 = system: HOP-62
A498 = system: A498
Malme-3M = system: Malme-3M
SK-MEL-28 = system: SK-MEL-28
HCT-116 = system: HCT-116
K562 = system: K562
SW-620 = system: SW-620
U-251 = system: U-251
SK-MEL-2 = system: SK-MEL-2
HOP-92 = system: HOP-92
MDA-MB-231 = system: MDA-MB-231
CAKI-1 = system: CAKI-1
IGROV-1 = system: IGROV-1
CCRF-CEM = system: CCRF-CEM
UACC-62 = system: UACC-62
TK-10 = system: TK-10
OVCAR-3 = system: OVCAR-3
LOX IMVI = system: LOX IMVI
NCI/ADR-RES = system: NCI/ADR-RES
DU-145 = system: DU-145
Hs-578T = system: Hs-578T
HT-29 = system: HT-29
A549 = system: A549
SF-539 = system: SF-539
MCF7 = system: MCF7
NCI-H522 = system: NCI-H522
OVCAR-8 = system: OVCAR-8
NCI-H460 = system: NCI-H460
OVCAR-5 = system: OVCAR-5
T47D = system: T47D
OVCAR-4 = system: OVCAR-4
M14 = system: M14
PC-3 = system: PC-3
SK-OV-3 = system: SK-OV-3
BT-549 = system: BT-549
SK-MEL-5 = system: SK-MEL-5
786-0 = system: 786-0
COLO 205 = system: COLO 205
RXF 393 = system: RXF 393
KM12 = system: KM12
MOLT-4 = system: MOLT-4
SNB-19 = system: SNB-19
NCI-H23 = system: NCI-H23
SF-268 = system: SF-268
HL-60 = system: HL-60
NCI-H226 = system: NCI-H226
SNB-75 = system: SNB-75

Structure (SMILES): O=C(CCN1CCN2c3ccccc3CCC2C1)c1ccc(F)cc1 (configuration not stated)
- GI50 (UACC-257): 34.7 µM (inactive)
- GI50 (MDA-MB-435): 24 µM (inactive)
- GI50 (RPMI-8226): 28.9 µM (inactive)
- GI50 (ACHN): 19 µM (inactive)
- GI50 (SR): 28.4 µM (inactive)
- GI50 (HCT-15): 20.8 µM
- GI50 (UO-31): 17.6 µM (inactive)
- GI50 (SN12C): 48.6 µM (inactive)
- GI50 (EKVX): 27.5 µM (inactive)
- GI50 (SF-295): > 100 µM (inactive)
- GI50 (HOP-62): 23.8 µM (inactive)
- GI50 (A498): > 100 µM (inactive)
- GI50 (Malme-3M): 25.1 µM (inactive)
- GI50 (SK-MEL-28): 14.7 µM (inactive)
- GI50 (HCT-116): 37.5 µM (inactive)
- GI50 (K562): 30.2 µM (inactive)
- GI50 (SW-620): 10.3 µM (inactive)
- GI50 (U-251): 27.8 µM (inactive)
- GI50 (SK-MEL-2): 23 µM (inactive)
- GI50 (HOP-92): 33.9 µM (inactive)
- GI50 (MDA-MB-231): 37.7 µM (inactive)
- GI50 (CAKI-1): 23.3 µM (inactive)
- GI50 (IGROV-1): 22.4 µM (inactive)
- GI50 (CCRF-CEM): 36.6 µM (inactive)
- GI50 (UACC-62): 31 µM (inactive)
- GI50 (TK-10): 29.6 µM (inactive)
- GI50 (OVCAR-3): 32.1 µM (inactive)
- GI50 (LOX IMVI): 30.1 µM (inactive)
- GI50 (NCI/ADR-RES): 36 µM (inactive)
- GI50 (DU-145): 30.1 µM (inactive)
- GI50 (Hs-578T): 35.6 µM (inactive)
- GI50 (HT-29): 18.8 µM (inactive)
- GI50 (A549): > 100 µM (inactive)
- GI50 (SF-539): 20.8 µM (inactive)
- GI50 (MCF7): 19.8 µM (inactive)
- GI50 (NCI-H522): 15.4 µM (inactive)
- GI50 (OVCAR-8): 41.5 µM (inactive)
- GI50 (NCI-H460): 47.1 µM (inactive)
- GI50 (OVCAR-5): 23.1 µM (inactive)
- GI50 (T47D): 20 µM (inactive)
- GI50 (OVCAR-4): 20 µM (inactive)
- GI50 (M14): 49.7 µM (inactive)
- GI50 (PC-3): 42.8 µM (inactive)
- GI50 (SK-OV-3): 68.2 µM (inactive)
- GI50 (BT-549): 25.1 µM (inactive)
- GI50 (SK-MEL-5): 22.5 µM (inactive)
- GI50 (786-0): 18.9 µM (inactive)
- GI50 (COLO 205): 22 µM (inactive)
- GI50 (RXF 393): 20.6 µM (inactive)
- GI50 (KM12): 41.1 µM (inactive)
- GI50 (MOLT-4): 57.3 µM (inactive)
- GI50 (SNB-19): 23.2 µM (inactive)
- GI50 (NCI-H23): 36.1 µM (inactive)
- GI50 (SF-268): 46.9 µM (inactive)
- GI50 (HL-60): 28.5 µM (inactive)
- GI50 (NCI-H226): 34.8 µM (inactive)
- GI50 (SNB-75): 27.2 µM (inactive)
